Results: article PMC9511441, “Semisynthetic teicoplanin derivatives with dual antimicrobial activity against SARS-CoV-2 and multiresistant bacteria” (Scientific Reports, 2022)
In brackets after ≈: the same amount, converted by molar mass. Where two headings read alike, the source gives them in different places.

Key:
[1] = target: T1, human recombinant cathepsin L (Homo sapiens, UniProt P07711); test: biochemical; type: biochemical; details: read-out: Cathepsin L IC50; pH 5.5, Z-Phe-Arg-AMC substrate
T1 construct: made in house; host or cells: Escherichia coli

HEL cells = test: Cytotoxicity in mock-infected HEL cells (MTS); type: cell-based, human; details: mock-infected HEL cells, MTS, mean of 2–3 tests
[2] = test system: Klebsiella pneumoniae ST258 clone K 160/09; test: MIC against Gram-negative strain; details: Klebsiella pneumoniae
[3] = test system: Acinetobacter baumannii ATCC BAA1605; test: MIC against Gram-negative strain; details: Acinetobacter baumannii, ATCCBAA1605
VeroE6 cells = test: Cytotoxicity in mock-infected VeroE6 cells (XTT); type: cell-based, African green monkey; details: mock-infected Vero E6 cells, three days, XTT
[4] = test system: Escherichia coli ATCC 25218; test: MIC against Gram-negative strain; details: ATCC25218
S. aureus ATCC29213 = test: Fluorescent competition assay, release of fluorescent vancomycin; details: cells saturated with FL-VAN, Fig. 7 left panel
S. aureus = test: MIC, broth microdilution; type: cell-based; details: Staphylococcus aureus
S. haemolyticus = test: MIC, broth microdilution; type: cell-based; details: Staphylococcus haemolyticus
E. faecalis = test: MIC, broth microdilution; type: cell-based; details: Enterococcus faecalis
S.pyogenes = test: MIC, broth microdilution; type: cell-based; details: Streptococcus pyogenes
Calu-3 cells = test: Cytotoxicity in mock-infected Calu-3 cells (XTT); details: read-out: CC50, Calu-3 cells, three days
S. epidermidis = test: microbe, parasite or virus in culture; type: cell-based; details: Staphylococcus epidermidis
E. faecium = test: microbe, parasite or virus in culture; type: cell-based; details: Enterococcus faecium
[5] = test system: Pseudomonas aeruginosa ATCC 27853; test: MIC against Gram-negative strain; details: ATCC27853

T1 sequence (P07711 114-333): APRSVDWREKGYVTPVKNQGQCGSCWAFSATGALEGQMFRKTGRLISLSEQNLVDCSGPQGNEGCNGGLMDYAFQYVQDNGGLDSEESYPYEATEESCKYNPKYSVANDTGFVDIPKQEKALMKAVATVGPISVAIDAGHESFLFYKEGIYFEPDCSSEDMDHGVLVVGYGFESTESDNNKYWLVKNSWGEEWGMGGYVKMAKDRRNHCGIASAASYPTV

CC(=O)N[C@H]1[C@H](O[C@@H]2c3ccc(c(Cl)c3)Oc3cc4cc(c3O)Oc3ccc(cc3Cl)C[C@H]3NC(=O)[C@H](NC(=O)c5cc(OCCCSCCNC(=N)N)c(OCCCSCCNC(=N)N)c(OCCCSCCNC(=N)N)c5)c5ccc(O)c(c5)Oc5cc(O)cc(c5)[C@H](NC3=O)C(=O)N[C@H]4C(=O)N[C@H]3C(=O)N[C@@H]2C(=O)N[C@H](C(=O)O)c2cc(O)cc(O)c2-c2cc3ccc2O)O[C@H](CO)[C@@H](O)[C@@H]1O [Compound 7]
IC50 [1]: 4.5 ± 1 µM
CC50 (HEL cells): > 100 µM
MIC [2]: 512 µg/mL (≈ 252 µM)
MIC [3]: 128 µg/mL (≈ 63 µM)
CC50 (VeroE6 cells): > 100 µM
MIC [4]: 256 µg/mL (≈ 126 µM)
Outcompeting fluorescent vancomycin from S. aureus (in words) (S. aureus ATCC29213): no effect
MIC (S. aureus; ATCC 29213 / MSSA, read-out: MIC value, S. aureus ATCC29213, MSSA): 0.5 µg/mL (≈ 0.246 µM)
MIC (S. aureus; MRSA / USA300, read-out: MIC value, S. aureus USA300, CA-MRSA): 1 µg/mL (≈ 0.492 µM)
MIC (S. aureus; MRSA, read-out: Average MIC value, S. aureus CA-MRSA, 1 strain): 1 µg/mL (≈ 0.492 µM)
MIC (S. aureus; MRSA, read-out: Average MIC value, S. aureus MRSA, 7 strains): 0.89 µg/mL (≈ 0.438 µM)
MIC (S. aureus; MRSA, read-out: MIC value, S. aureus 73OL, MRSA): 1 µg/mL (≈ 0.492 µM)
MIC (S. aureus; MRSA, read-out: MIC value, S. aureus 214OL, MRSA): 1 µg/mL (≈ 0.492 µM)
MIC (S. aureus; MRSA, read-out: MIC value, S. aureus 1041OL, MRSA): 1 µg/mL (≈ 0.492 µM)
MIC (S. aureus; MRSA, read-out: MIC value, S. aureus A6918, MRSA): 1 µg/mL (≈ 0.492 µM)
MIC (S. aureus; MRSA, read-out: MIC value, S. aureus A6919, MRSA): 1 µg/mL (≈ 0.492 µM)
MIC (S. aureus; MRSA, read-out: MIC value, S. aureus Mu50, MRSA): 1 µg/mL (≈ 0.492 µM)
MIC (S. aureus; MRSA, read-out: MIC value, S. aureus N315, MRSA): 0.25 µg/mL (≈ 0.123 µM)
MIC (S. aureus; MSSA / NEWMAN, read-out: MIC value, S. aureus Newman, MSSA): 1 µg/mL (≈ 0.492 µM)
MIC (S. aureus; MSSA, read-out: Average MIC value, S. aureus MSSA, 4 strains): 1.12 µg/mL (≈ 0.554 µM)
MIC (S. aureus; MSSA, read-out: MIC value, S. aureus MSSA476, MSSA): 2 µg/mL (≈ 0.984 µM)
MIC (S. aureus; MSSA, read-out: MIC value, S. aureus SA564, MSSA): 1 µg/mL (≈ 0.492 µM)
MIC (S. haemolyticus; S. haemolyticus mecA, 6 strains, read-out: Average MIC value): 1.2 µg/mL (≈ 0.591 µM)
MIC (S. haemolyticus; S.haemolyticus DALB_R1, mecA, read-out: MIC value): 1 µg/mL (≈ 0.492 µM)
MIC (S. haemolyticus; S.haemolyticus DALB_R2, mecA, read-out: MIC value): 1 µg/mL (≈ 0.492 µM)
MIC (S. haemolyticus; S.haemolyticus DALB_R3, mecA, read-out: MIC value): 2 µg/mL (≈ 0.984 µM)
MIC (S. haemolyticus; S.haemolyticus DALB_R4, mecA, read-out: MIC value): 2 µg/mL (≈ 0.984 µM)
MIC (S. haemolyticus; S.haemolyticus DALB_R5, mecA, read-out: MIC value): 0.5 µg/mL (≈ 0.246 µM)
MIC (S. haemolyticus; S.haemolyticus ORI_R1, mecA, read-out: MIC value): 0.5 µg/mL (≈ 0.246 µM)
MIC (E. faecalis; read-out: Average MIC value, E. faecalis VAN^R,TEI^R/VanA, 1 strain): > 8 µg/mL
MIC (E. faecalis; read-out: Average MIC value, E. faecalis VAN^S, TEI^S, 2 strains): 2 µg/mL (≈ 0.984 µM)
MIC (E. faecalis; read-out: MIC value, E.faecalis JH2-2): 2 µg/mL (≈ 0.984 µM)
MIC (E. faecalis; read-out: MIC value, E.faecalis OG1RF): 2 µg/mL (≈ 0.984 µM)
MIC (E. faecalis; read-out: MIC value, E.faecalis V583, VAN,TEI/VanA): > 8 µg/mL
MIC (S.pyogenes; read-out: MIC value, S.pyogenes H232): 0.25 µg/mL (≈ 0.123 µM)
MIC (S.pyogenes; read-out: MIC value, S.pyogenes H550): 0.25 µg/mL (≈ 0.123 µM)
MIC (S.pyogenes; read-out: MIC value, S.pyogenes H578): 0.25 µg/mL (≈ 0.123 µM)
CC50 (Calu-3 cells): > 100 µM
MIC (S. epidermidis; read-out: Average MIC value, S. epidermidis mecA, 6 strains): 0.25 µg/mL (≈ 0.123 µM)
MIC (S. epidermidis; read-out: MIC value, S.epidermidis ORI_R1, mecA): 0.25 µg/mL (≈ 0.123 µM)
MIC (S. epidermidis; read-out: MIC value, S.epidermidis ORI_R2, mecA): 0.25 µg/mL (≈ 0.123 µM)
MIC (S. epidermidis; read-out: MIC value, S.epidermidis ORI_R3, mecA): 0.25 µg/mL (≈ 0.123 µM)
MIC (S. epidermidis; read-out: MIC value, S.epidermidis ORI_R4, mecA): 0.25 µg/mL (≈ 0.123 µM)
MIC (S. epidermidis; read-out: MIC value, S.epidermidis TEI_R1, mecA): 0.25 µg/mL (≈ 0.123 µM)
MIC (S. epidermidis; read-out: MIC value, S.epidermidis TEI_R2, mecA): 0.25 µg/mL (≈ 0.123 µM)
MIC (E. faecium; read-out: Average MIC value, E. faecium VAN^R,TEI^R/VanA, 8 strains): > 8 µg/mL
MIC (E. faecium; read-out: Average MIC value, E. faecium VAN^S, TEI^S, 1 strain): 2 µg/mL (≈ 0.984 µM)
MIC (E. faecium; read-out: MIC value, E.faecium E335, VAN,TEI,LNZ/VanA): > 8 µg/mL
MIC (E. faecium; read-out: MIC value, E.faecium E355, VAN,TEI,LNZ/VanA): > 8 µg/mL
MIC (E. faecium; read-out: MIC value, E.faecium E832, VAN,TEI,LNZ/VanA): > 8 µg/mL
MIC (E. faecium; read-out: MIC value, E.faecium E854, VAN,TEI,LNZ/VanA): > 8 µg/mL
MIC (E. faecium; read-out: MIC value, E.faecium E859, VAN,TEI,LNZ/VanA): > 8 µg/mL
MIC (E. faecium; read-out: MIC value, E.faecium E1114, VAN,TEI,LNZ/VanA): > 8 µg/mL
MIC (E. faecium; read-out: MIC value, E.faecium E1131, VAN,TEI,LNZ/VanA): > 8 µg/mL
MIC (E. faecium; read-out: MIC value, E.faecium E1132, VAN,TEI,LNZ/VanA): > 8 µg/mL
MIC (E. faecium; read-out: MIC value, E.faecium TX0016): 2 µg/mL (≈ 0.984 µM)
MIC [5]: 128 µg/mL (≈ 63 µM)
